Format in all cases: ADME, cell-based
Common to all, as to conditions: human

Data set [1] deals with A549. Description: Metabolic stability in A549 cells assessed as rate of prodrug loss in anoxic condition.
The subject of data set [2] is A549. Description: Metabolic stability in A549 cells assessed as rate of prodrug loss in aerobic condition.
The test system of data set [3] is A549. The data set can be described thus: Metabolic stability in A549 cells assessed as rate of 6-thioguanine production in anoxic condition.
Data set [4] concerns A549. Description: Metabolic stability in A549 cells assessed as rate of 6-thioguanine production in aerobic condition.

As for `Nc1nc(SCc2ccc([N+](=O)[O-])cc2)c2nc[nH]c2n1`, the Activity in the data set with A549 [1] is 39 nM/min; in the data set with A549 [2], 0 nM/min; with A549 [3], 0 nM/min; in the data set with A549 [4], 1.7 nM/min.
For the compound `CC(C)(Sc1nc(N)nc2[nH]cnc12)c1ccc([N+](=O)[O-])cc1`, the Activity in the data set on A549 [1] came out at 100 nM/min; in the data set on A549 [2] it was 9.5 nM/min; in the data set with A549 [3] it was 72 nM/min; in the data set with A549 [4], 1.7 nM/min.

Source of the values: ChEMBL document CHEMBL1140001, “Hypoxia-driven elimination of thiopurines from their nitrobenzyl prodrugs” (Bioorg Med Chem Lett, 2007).
